Laboratory results from publication PMC9486168, “Protein-protein interaction-based high throughput screening for adenylyl cyclase 1 inhibitors: Design, implementation, and discovery of a novel chemotype” (Frontiers in Pharmacology, 2022).
Read-outs that look alike come from different tables or passages of the source.

How the values were obtained:
AC1 = target: T1, AC1 (Homo sapiens, UniProt Q08828); assay: cAMP accumulation assay, AC1-HEK Δ3/6 KO cells; assay type: cell-based
T1 construct: expressed in transfected cells
T1 sequence (Q08828 whole entry): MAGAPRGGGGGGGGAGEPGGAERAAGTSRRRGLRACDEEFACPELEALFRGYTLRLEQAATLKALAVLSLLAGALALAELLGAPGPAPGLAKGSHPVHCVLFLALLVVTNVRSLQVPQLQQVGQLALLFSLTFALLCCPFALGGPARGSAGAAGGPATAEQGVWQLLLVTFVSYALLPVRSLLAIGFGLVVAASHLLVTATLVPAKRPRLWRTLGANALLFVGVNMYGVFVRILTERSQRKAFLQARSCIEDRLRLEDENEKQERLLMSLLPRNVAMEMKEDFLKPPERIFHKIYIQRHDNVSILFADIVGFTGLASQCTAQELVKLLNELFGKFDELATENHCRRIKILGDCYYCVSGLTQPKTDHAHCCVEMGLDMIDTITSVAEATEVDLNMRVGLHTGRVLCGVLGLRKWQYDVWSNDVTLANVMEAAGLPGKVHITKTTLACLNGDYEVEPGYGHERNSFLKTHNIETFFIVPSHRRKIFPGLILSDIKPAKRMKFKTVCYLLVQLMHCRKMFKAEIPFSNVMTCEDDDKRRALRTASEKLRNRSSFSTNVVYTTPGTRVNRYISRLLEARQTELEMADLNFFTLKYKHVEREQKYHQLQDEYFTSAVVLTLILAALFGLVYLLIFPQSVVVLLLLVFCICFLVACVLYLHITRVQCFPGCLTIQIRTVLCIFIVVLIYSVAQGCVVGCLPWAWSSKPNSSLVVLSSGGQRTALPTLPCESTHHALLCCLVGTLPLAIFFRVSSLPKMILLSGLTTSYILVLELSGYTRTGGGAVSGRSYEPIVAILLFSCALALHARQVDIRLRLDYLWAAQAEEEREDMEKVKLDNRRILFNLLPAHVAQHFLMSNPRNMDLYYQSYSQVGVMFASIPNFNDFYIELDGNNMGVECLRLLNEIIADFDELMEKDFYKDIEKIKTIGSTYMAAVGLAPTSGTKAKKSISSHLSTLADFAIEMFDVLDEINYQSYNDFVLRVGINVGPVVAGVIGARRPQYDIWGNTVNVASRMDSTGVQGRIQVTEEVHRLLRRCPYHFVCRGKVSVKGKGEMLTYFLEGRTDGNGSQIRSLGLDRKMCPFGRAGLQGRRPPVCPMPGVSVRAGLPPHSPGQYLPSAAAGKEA
Experimental: Cells were then incubated for 1 h at 37°C and 5% CO2. Cells were then treated with varying concentrations of inhibitors for 30 min, followed by treatment with calcium ionophore A23187 (3 μM) in 500 μM 3-isobutyl-1-methylxanthine (IBMX), a phosphodiesterase inhibitor, for 1 h at RT (Sigma Aldrich, St. Louis, MO). Finally, Cisbio HTRF detection reagents were added and incubated for 1–24 h at RT. Plates were read according to manufacturer’s protocol on an HTRF-compatible plate reader at 620 and 665 nm cAMP concentrations were interpolated from a cAMP standard curve. […] For cytotoxicity assays, compounds were tested at 30 μM and this protocol was used with the exception of detection reagents; CellTiter-Glo 2.0 reagent was used according to manufacturer’s protocol and luminescence was read on the Synergy Neo2 plate reader. Data are normalized to cells treated with vehicle (100%) or 2% tween (0%) and are represented as the percent of vehicle, from the average of three independent experiments (N = 3).

AC8-C2b/CaM = target: T2, AC8-C2b/CaM (Homo sapiens, UniProt P0DP23); assay: AC8-C2b/CaM FP counterscreen assay; assay type: binding;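 note: fluorescence polarization of AC peptide binding to GST-CaM in HEPES buffer with KCl and 50 µM CaCl2, compound preincubated 30 min with GST-CaM, DMSO and calmidazolium as controls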
T2 construct: made in house; host or cells: E. coli BL21-CodonPlus (DE3)-RIPL

AC1-C1b/CaM = target: T3, AC1-C1b/CaM (Homo sapiens, UniProt P0DP23); assay: AC1-C1b/CaM fluorescence polarization (FP) assay; assay type: binding
T3 construct: made in house; host or cells: E. coli BL21-CodonPlus (DE3)-RIPL

AC8 = target: T4, AC8 (Homo sapiens, UniProt P40145); assay: cAMP accumulation assay, AC8-HEK Δ3/6 KO cells; assay type: cell-based; conditions: CDI analog SAR set, 3 μM A23187; read-out: IC50 (μM) ± SEM AC8
T4 construct: expressed in transfected cells
T4 sequence (P40145 whole entry, species assumed): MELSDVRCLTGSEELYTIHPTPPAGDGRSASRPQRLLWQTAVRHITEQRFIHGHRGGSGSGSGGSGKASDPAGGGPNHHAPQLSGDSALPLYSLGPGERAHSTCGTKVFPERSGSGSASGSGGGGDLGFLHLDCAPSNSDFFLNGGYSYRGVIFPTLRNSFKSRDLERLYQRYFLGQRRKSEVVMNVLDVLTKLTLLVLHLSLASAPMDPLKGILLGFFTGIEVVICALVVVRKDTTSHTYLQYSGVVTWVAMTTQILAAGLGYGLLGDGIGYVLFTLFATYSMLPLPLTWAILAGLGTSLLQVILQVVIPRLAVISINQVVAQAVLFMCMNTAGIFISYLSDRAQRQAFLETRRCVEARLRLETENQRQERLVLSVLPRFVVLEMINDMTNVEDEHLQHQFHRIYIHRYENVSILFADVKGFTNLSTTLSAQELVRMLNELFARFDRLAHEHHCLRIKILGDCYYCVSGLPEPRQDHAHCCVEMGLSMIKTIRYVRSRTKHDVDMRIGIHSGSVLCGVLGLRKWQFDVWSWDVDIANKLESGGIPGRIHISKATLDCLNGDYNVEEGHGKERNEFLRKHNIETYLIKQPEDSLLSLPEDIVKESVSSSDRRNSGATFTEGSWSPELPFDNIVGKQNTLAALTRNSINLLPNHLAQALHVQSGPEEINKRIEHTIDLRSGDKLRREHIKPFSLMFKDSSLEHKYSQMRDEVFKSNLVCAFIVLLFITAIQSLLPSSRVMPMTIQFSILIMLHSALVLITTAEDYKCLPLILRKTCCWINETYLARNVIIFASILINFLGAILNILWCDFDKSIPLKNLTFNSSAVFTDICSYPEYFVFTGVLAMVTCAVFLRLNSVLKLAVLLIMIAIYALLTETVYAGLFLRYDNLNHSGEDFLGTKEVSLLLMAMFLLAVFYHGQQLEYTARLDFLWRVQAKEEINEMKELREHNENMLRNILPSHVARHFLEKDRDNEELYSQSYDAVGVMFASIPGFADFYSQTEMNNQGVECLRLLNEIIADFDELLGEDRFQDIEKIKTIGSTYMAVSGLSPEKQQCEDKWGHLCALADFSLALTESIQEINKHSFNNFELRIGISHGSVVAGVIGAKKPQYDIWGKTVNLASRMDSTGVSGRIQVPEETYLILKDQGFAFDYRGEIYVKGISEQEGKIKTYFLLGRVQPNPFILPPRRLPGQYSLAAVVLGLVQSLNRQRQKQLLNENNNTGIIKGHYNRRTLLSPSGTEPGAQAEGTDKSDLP
Experimental: (§1) Cryopreserved HEK293 cells with AC3 and AC6 knocked out, and stably expressing AC1, AC2, AC5, or AC8 (AC1-HEK Δ3/6 KO, AC2-HEK Δ3/6 KO, AC5-HEK Δ3/6 KO, or AC8-HEK Δ3/6 KO cells, respectively; [Soto-Velasquez et al., 2018]) were plated at 5,000 cells/well. Cells were then incubated for 1 h at 37°C and 5% CO2. Cells were then treated with varying concentrations of inhibitors for 30 min, followed by treatment with calcium ionophore A23187 (3 μM) in 500 μM 3-isobutyl-1-methylxanthine (IBMX), a phosphodiesterase inhibitor, for 1 h at RT (Sigma Aldrich, St. Louis, MO). Finally, Cisbio HTRF detection reagents were added and incubated for 1–24 h at RT. Plates were read according to manufacturer’s protocol on an HTRF-compatible plate reader at 620 and 665 nm cAMP concentrations were interpolated from a cAMP standard curve. […] For cytotoxicity assays, compounds were tested at 30 μM and this protocol was used with the exception of detection reagents; CellTiter-Glo 2.0 reagent was used according to manufacturer’s protocol and luminescence was read on the Synergy Neo2 plate reader. Data are normalized to cells treated with vehicle (100%) or 2% tween (0%) and are represented as the percent of vehicle, from the average of three independent experiments (N = 3).

AC1/CaM PPI = target: T5, AC1/CaM PPI (Homo sapiens, UniProt P0DP23); assay: AC1/CaM NanoBiT assay in HEK293T cells; assay type: cell-based
T5 construct: human AC1 (hAC1) residues 1–1,118 were cloned; The hCaM residues 1–149, residues 1–1,248 of rat AC8 (rAC8); expressed in transfected cells; host or cells: HEK293T, transient transfection

[1] = Cytotoxicity assay (CellTiter-Glo 2.0) in AC1-HEK Δ3/6 KO cells; assay type: cell-based; conditions: human, percent of vehicle, read-out: % Viable Cells at AC1 30 μM
Experimental: as §1

AC5 = target: T6, AC5 (Homo sapiens, UniProt O95622); assay: cAMP accumulation assay, AC5-HEK Δ3/6 KO cells; assay type: cell-based; conditions: read-out: % Inhibited at AC5 ± SEM
T6 construct: expressed in transfected cells
T6 sequence (O95622 whole entry, species assumed): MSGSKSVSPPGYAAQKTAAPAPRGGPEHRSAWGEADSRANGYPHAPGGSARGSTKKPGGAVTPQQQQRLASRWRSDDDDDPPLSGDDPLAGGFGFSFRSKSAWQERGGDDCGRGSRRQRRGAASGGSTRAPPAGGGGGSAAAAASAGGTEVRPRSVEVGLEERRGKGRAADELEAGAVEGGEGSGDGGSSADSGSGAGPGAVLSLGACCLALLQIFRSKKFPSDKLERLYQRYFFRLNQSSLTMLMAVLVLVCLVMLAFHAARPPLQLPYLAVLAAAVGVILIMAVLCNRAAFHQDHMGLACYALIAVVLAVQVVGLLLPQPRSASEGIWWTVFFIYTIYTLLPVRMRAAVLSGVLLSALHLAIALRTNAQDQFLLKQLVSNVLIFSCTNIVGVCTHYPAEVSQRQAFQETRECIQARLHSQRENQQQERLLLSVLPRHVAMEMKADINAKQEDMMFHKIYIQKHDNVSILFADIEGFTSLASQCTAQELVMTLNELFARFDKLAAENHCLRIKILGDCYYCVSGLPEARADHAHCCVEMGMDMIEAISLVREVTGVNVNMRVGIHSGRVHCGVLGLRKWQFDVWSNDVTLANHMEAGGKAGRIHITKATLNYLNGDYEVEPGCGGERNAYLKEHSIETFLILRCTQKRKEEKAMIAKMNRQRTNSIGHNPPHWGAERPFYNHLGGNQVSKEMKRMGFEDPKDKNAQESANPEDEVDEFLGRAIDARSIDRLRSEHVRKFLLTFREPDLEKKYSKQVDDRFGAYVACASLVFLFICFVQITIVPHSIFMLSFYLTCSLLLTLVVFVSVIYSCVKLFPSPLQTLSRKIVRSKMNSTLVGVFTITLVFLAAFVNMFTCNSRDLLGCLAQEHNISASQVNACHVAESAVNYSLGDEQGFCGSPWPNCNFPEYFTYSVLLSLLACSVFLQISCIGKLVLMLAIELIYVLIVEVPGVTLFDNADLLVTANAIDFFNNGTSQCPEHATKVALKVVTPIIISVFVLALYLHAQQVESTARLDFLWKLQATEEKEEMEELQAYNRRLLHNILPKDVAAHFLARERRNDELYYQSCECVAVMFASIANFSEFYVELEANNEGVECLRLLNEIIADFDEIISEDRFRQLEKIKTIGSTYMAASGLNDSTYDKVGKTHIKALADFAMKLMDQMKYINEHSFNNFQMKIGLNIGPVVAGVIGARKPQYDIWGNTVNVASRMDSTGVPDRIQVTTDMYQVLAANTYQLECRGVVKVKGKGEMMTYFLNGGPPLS
Experimental: as §1

CaM = target: T7, CaM (Homo sapiens, UniProt P0DP23); assay: 1H-15N HSQC NMR of 15N-CaM with compound; assay type: binding; conditions: 5 equivalent molar excess over 100 μM CaM
T7 construct: 6X-His-GST (N, cleaved yes); made in house; host or cells: E. coli BL21-CodonPlus (DE3)-RIPL in M9 minimal media with 15NH4Cl
Experimental: All NMR samples contained 100 μM ^15N-CaM in 20 mM HEPES pH 7.4, 100 mM KCl, 10 mM CaCl2, 10% D2O, and 5% DMSO. Initial spectra were collected for CaM alone before individual compounds were titrated to observe chemical shift perturbations. All spectra were acquired at 298 K using a 600 MHz Bruker Avance NEO NMR spectrometer with a triple resonance gradient cryoprobe. NMR spectra were processed using NMRPipe and analyzed using NMRFAM-SPARKY.

AC2 = target: T8, AC2 (Homo sapiens, UniProt Q08462); assay: cAMP accumulation assay, AC2-HEK Δ3/6 KO cells; assay type: cell-based; conditions: read-out: % Inhibited at AC2 ± SEM
T8 construct: expressed in transfected cells
T8 sequence (Q08462 whole entry): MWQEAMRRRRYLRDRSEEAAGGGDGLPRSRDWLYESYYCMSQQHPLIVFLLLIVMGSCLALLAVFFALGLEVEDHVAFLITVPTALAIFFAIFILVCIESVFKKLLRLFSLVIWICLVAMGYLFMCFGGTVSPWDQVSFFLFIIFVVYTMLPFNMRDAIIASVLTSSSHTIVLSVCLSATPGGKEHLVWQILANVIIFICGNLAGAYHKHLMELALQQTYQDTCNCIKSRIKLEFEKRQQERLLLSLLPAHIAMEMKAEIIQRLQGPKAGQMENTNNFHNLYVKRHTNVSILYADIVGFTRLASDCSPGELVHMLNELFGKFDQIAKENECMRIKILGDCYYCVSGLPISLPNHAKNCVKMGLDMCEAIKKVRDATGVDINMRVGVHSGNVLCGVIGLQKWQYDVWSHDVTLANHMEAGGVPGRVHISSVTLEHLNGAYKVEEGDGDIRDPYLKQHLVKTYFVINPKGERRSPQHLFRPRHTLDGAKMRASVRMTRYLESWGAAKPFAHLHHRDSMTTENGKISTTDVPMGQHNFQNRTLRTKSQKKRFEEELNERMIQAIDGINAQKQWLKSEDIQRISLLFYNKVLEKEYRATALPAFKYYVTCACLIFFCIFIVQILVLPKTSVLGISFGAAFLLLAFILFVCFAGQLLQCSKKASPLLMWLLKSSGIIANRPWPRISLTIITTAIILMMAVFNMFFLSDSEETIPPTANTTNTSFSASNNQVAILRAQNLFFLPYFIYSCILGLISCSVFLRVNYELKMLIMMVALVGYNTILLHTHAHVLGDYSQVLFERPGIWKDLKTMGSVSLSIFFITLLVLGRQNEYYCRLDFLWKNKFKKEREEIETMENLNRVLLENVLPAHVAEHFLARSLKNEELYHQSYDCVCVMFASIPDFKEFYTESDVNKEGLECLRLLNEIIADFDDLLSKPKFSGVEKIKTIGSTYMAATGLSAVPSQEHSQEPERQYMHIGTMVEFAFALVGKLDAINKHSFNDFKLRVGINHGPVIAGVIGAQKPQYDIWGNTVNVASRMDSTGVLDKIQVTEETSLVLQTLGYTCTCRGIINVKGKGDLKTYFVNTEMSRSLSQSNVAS
Experimental: as §1

AC8/CaM PPI = target: T9, AC8/CaM PPI (Homo sapiens, UniProt P0DP23); assay: AC8/CaM NanoBiT assay in HEK293T cells; assay type: cell-based, rat
T9 construct: confirmed as an AC1/AC8 non-selective hit against full-length AC1- and AC8-CaM in the NanoBiT assay; The hCaM residues 1–149, residues 1–1,248 of rat AC8 (rAC8); expressed in transfected cells; host or cells: HEK293T, transient transfection

AC8-Nt/CaM = target: T10, AC8-Nt/CaM (Homo sapiens, UniProt P0DP23); assay: AC8-Nt/CaM FP counterscreen assay; assay type: binding;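 note: fluorescence polarization of AC peptide binding GST-CaM in HEPES buffer with CaCl2, compound preincubated with CaM 30 min, peptide read after 2 h at room temperature in dark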
T10 construct: made in house; host or cells: E. coli BL21-CodonPlus (DE3)-RIPL

[2] = CellTiter-Glo 2.0 cell viability assay; assay type: cell-based; conditions: human, HEK293T cells, pH 7.4; at the compound's AC1/CaM NanoBiT IC50 concentration; read-out: % Viable Cells at AC1 IC50;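 note: luminescence read-out after 30 min compound exposure at 37 °C in HEPES-buffered HBSS, scaled to vehicle-treated cells as 100% and cell-free buffer wells as 0%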
HEK293T cells = assay: CellTiter-Glo 2.0 cell viability assay; assay type: cell-based; conditions: ∼300 μM;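 note: luminescence read-out after 30 min compound exposure at 37 °C in HEPES-buffered HBSS, scaled to vehicle-treated cells as 100% and cell-free buffer wells as 0%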
[3] = Cheng-Prusoff from FP IC50 and Kd, n/i given where none
[4] = ratio >1: more potent in AC1/CaM FP

IC50 (AC1; CDI analog SAR set, 3 μM A23187, read-out: IC50 (μM) ± SEM AC1): 4.36 ± 0.32 µM
inhibition of AC1 activity (AC1; CDI analog set, maximal inhibition of A23187 response): 100%
inhibition of AC1 activity (efficacy) (AC1; initial characterization of hits, data not shown): ~75%
IC50 (AC1; initial examination, 10,000 cells per well, 3 μM A23187, 1 h RT, read-out: AC1 IC50 ± SEM): 4.88 ± 2.14 µM
Ki (μM) AC8 C2b (AC8-C2b/CaM; [3]): n/i
Ki ratio (AC8-C2b/AC1) (AC8-C2b/CaM; [4]): AC1 Selective
IC50 (AC1-C1b/CaM; 100 nM AC1-C1b, 100 nM GST-CaM, 95% CI in brackets): 22.1 µM
Ki (AC1-C1b/CaM; Cheng-Prusoff from FP IC50 and Kd): 5.2 µM
AC1-CaM FP % inhib (AC1-C1b/CaM; relative to 100 μM CDZ (100% inhibition), highest concentration tested): 58%
IC50 (AC8): 3.9 ± 1.83 µM
IC50 (AC1/CaM PPI; HEK293T, thapsigargin-stimulated, AUC, read-out: Nanobit: AC1-CaM IC50 (μM ± SEM)): 26.1 ± 1.17 µM
inhibition of AC1-CaM interaction in NanoBiT (AC1/CaM PPI; full-length proteins): 100%
inhibition at 30 µM (AC5): 47 ± 10%
inhibition at 30 µM (AC2): 59 ± 14%
IC50 (AC8/CaM PPI; HEK293T, thapsigargin-stimulated, AUC, read-out: Nanobit: AC8-CaM IC50 (μM ± SEM)): 33.3 ± 1.18 µM
inhibition of AC8-CaM interaction in NanoBiT (AC8/CaM PPI; full-length proteins): 100%
Ki (μM) AC8 NT (AC8-Nt/CaM; [3]): n/i
Ki ratio (AC8 NT/AC1) (AC8-Nt/CaM; [4]): AC1 Selective
Compound: CCc1cc(C(c2cccs2)N2CCN(C)CC2)c(NC(=O)c2ccco2)s1 (stereo not shown) [Compound 15]
viability at 30 min, 30 μM [1]: 43%
chemical shift perturbations (CSP) of 15N-CaM (CaM): several peaks were broadened by intermediate exchange and disappeared
viability at 30 min [2]: 100%
cell viability at ∼300 μM (HEK293T cells): decrease in cell viability
